Measurements published in patent US4451464A, “Trifluoromethyl substituted tricyclic quinazolinones useful as tranquilizers” (Sandoz, Inc., priority 1982, dated 1984).

Biological target: calf brain benzodiazepine receptors (calf brain cortex)
Assay: Flunitrazepam Receptor Binding Assay, FBA TEST No. 2 (inhibition of specific 3H-flunitrazepam binding)
Settings: 1.5 nM [3H]-Flunitrazepam, 15 min at 0° C., read-out: IC50 (concentration which inhibits specific binding of 3H-Flunitrazepam by 50%)
Experimental: Substantially similar results are obtainable in a Flunitrazepam Receptor Binding Assay as described by Chang et al., Eur. J. Pharmacol., 48, 213 (1978): when carried out with the non-substantive modifications evident from the following description (hereinafter FBA TEST No. 2): Fresh calf brain cortex is homogenized in a 19 fold volume of Tris-HCl buffer pH 7.4, using a Brinkman Polytron PT 20 and centrifuged at 50'000 g for […]. The pellets are frozen at -20° C. and resuspended in a 400 fold volume of Tris-buffer pH 7.4 before use for the binding assay. The assay mixtures consist of 1.8 ml of homogenate (corresponding to 4.5 mg of original tissue), 0.1 ml [^3 H]-Flunitrazepam (final concentration 1.5 nM), and 0.1 ml of buffer for determination of total binding or 0.1 ml of unlabelled Flunitrazepam (final concentration 1 μM) for determination of nonspecific binding, respectively. To assess the potency of various drugs in inhibiting specific binding, drugs are added (instead of buffer) to give 5 to 9 different concentrations between 1 nM and 10 μM, each in duplicate. After incubation for 15 min at 0° C., the assay mixtures are rapidly filtered through Whatman GF/B filters and washed twice with 5 ml of ice cold Tris-buffer. The filters are counted in Rialuma on a LKB Rach-Beta Liquid Scintillation Counter. […]

CCCCN1CCn2c1nc1ccc(C(F)(F)F)cc1c2=O [Example 2, 1-n-butyl-7-trifluoromethyl-2,3-dihydro-imidazo[2,1-b]quinazolin-5(1H)-one]
IC50: 15 nM
